Assay results as given in ChEMBL document CHEMBL3286123, “Aliphatic phenolic ethers from Trichobotrys effusa” (2014).

System: A549
Experiment: Growth inhibition of human A549 cells after 48 hrs by SRB assay
Format: functional
Settings: A549, 48 h

Compound	GI50
C/C=C/C=C/C=C1\[C@H](OC)O[C@](C)(OC)[C@H]1OCc1c(O)cccc1CCC	16.2 µM
C/C=C/C=C/C=C1\CO[C@](C)(OC)[C@H]1OCc1c(O)cccc1CCC	24.3 µM
C/C=C/C=C/C=C(\C=O)C(OCc1c(O)cccc1CCC)C(C)=O (stereo unspecified)	19.3 µM
C/C=C/C=C/C=C(\CO)[C@H](OCc1c(O)cccc1CCC)[C@H](C)O	25.6 µM
C[C@@H]1C[C@H]2O[C@@H]2/C=C\C=C\C(=O)Cc2c(Cl)c(O)cc(O)c2C(=O)O1 [RADICICOL]	1.43 µM
O=c1[nH]cc(F)c(=O)[nH]1 [FLUOROURACIL]	4.55 µM
